Measurements published in PMC4048267, “Purification and Characterization of a Novel and Robust L-Asparaginase Having Low-Glutaminase Activity from Bacillus licheniformis: In Vitro Evaluation of Anti-Cancerous Properties” (PLoS ONE, 2014).

Test system: T1, L-asparaginase from Bacillus licheniformis RAM-8
T1 construct: gene L-asparagine amidohydrolase
Conditions: 25 °C; L-asparagine 2 to 20 mM; assay buffer 50 mM Tris-HCl pH 8.6

Question: `NC(=O)C[C@H](N)C(=O)O` [L-asparagine] was tested. Which Km did it give?
Answer: The Km was 14 µM.
